Assay results as given in article PMC6264317, “Acetylcholinesterase-inhibiting Alkaloids from Zephyranthes concolor” (Molecules, 2011).
In brackets after ≈: the same amount, converted by molar mass. Like-named read-outs stand apart in the source and are kept apart here.

Experiments:
[1] = Cytotoxicity in non-infected MT-4 cells (MTT); type: cell-based, human; details: human
Method: (§1) Anti-HIV activity and cytotoxicity were evaluated in human MT-4 cells based on viability of cells that have been infected or not infected with HIV-1 following exposure to various concentrations of the test compound according to the procedure previously described. After proliferation for 5 days the number of viable MT-4 cells was quantified by tetrazolium-based colorimetric method (MTT). The HIV-1 NL4-3 virus used was a molecular clone obtained from the National Institute of Health (Bethesda, USA) that was propagated and tittered in MT-4 cells. All anti-HIV evaluations were done in triplicate in two separate experiments.

HIV-1 (NL4-3) = assay: Anti-HIV activity in MT-4 cells (MTT viability of infected cells); type: cell-based; details: for EC50: Human immunodeficiency virus 1, NL43, MT4, 120 h, read-out: EC50 HIV-1 (NL4-3): effective concentration needed to inhibit 50% HIV-induced cell death, 5 days
Method: as §1

human MT-4 cells = assay: Cytotoxicity in non-infected MT-4 cells (MTT); type: cell-based; details: 5 days
Method: as §1

[2] = molecular target: T1, electric eel acetylcholinesterase (Electrophorus electricus, UniProt O42275); assay: biochemical
T1 construct: purchased Sigma Aldrich Chemie (Stenheim, Germany) type V-S
T1 sequence (O42275 24-633): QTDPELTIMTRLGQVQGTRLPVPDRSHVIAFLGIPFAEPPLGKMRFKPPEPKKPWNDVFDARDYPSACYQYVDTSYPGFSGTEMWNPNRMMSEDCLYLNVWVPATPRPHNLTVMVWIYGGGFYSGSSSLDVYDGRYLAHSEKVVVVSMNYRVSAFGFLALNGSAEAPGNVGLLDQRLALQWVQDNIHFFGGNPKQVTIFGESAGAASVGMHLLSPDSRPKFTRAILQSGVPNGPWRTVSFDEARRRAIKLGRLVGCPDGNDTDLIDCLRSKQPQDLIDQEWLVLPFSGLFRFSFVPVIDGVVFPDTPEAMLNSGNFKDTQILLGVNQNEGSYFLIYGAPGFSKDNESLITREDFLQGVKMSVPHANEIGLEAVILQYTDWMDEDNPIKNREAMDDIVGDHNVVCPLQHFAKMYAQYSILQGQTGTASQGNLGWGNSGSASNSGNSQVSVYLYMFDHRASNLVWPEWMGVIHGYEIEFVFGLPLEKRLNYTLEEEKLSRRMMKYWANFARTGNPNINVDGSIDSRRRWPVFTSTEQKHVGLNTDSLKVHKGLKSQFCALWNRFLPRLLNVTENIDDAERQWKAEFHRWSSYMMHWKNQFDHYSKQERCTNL
Method: The assay for measuring acetylcholinesterase (AChE) inhibitory activity was performed in 96 well microtitre plates as previously described. […] Acetylcholinesterase from Electrophorus electricus L. (electric eel) type V-S lyophilized powder, acetyl-thiocholine iodide (ATCI), and 5,5′-dithio-bis[2-nitrobenzoic acid] (DNTB) were obtained from Sigma Aldrich Chemie (Stenheim, Germany). Fifty microliters of AChE solution (500 U/mL) in phosphate buffer (8 mM K2HPO4, 2.3 mM NaH2PO4, 0.15 M NaCl, 0.05% Tween 20, pH 7.6), and 50 μL of the compound dissolved in the same buffer were added to each of the wells. The plates were incubated for 30 min at room temperature before addition of 100 μL of the substrate solution (0.1 M NaH2PO4, […], 0.6 mM ATCI in Millipore water, pH 7.5). Absorbance was recorded in a Labsystems Microplate Reader (Helsinki, Finland) at 405 nm after 6 min. Enzyme activity was calculated as percentage compared to an assay using a buffer without the tested compound. The AChE inhibitory data were analysed with the Prism software package (Graph Pad Inc., San Diego, USA).

[3] = molecular target: electric eel acetylcholinesterase; details: cited from earlier work
HIV-1 = details: human MT4 cells; cited from earlier work
human MT4 cells = details: cited from earlier work
[4] = in vitro, read-out: EC50, inhibition of electric eel acetylcholinesterase in vitro
[5] = means ± SD of three determinations (10^−8 to 10^−3 M), read-out: EC50 (M), acetylcholinesterase inhibitory activity

With `c1cc(CN2CCCNCCNCCCNCC2)ccc1CN1CCCNCCNCCCNCC1` [AMD3100, reference compound] the CC50 at 5 days [1] was > 5 µg/mL and the EC50 (HIV-1 (NL4-3)) was 0.001 µg/mL (≈ 0.00199 µM).
In the case of `Cc1cn([C@H]2C[C@H](N=[N+]=[N-])[C@@H](CO)O2)c(=O)[nH]c1=O` [AZT, reference compound], the “CC50 No virus: concentration needed to induce 50% death of non-infected cells” value (human MT-4 cells) is reported as >1 µg/mL and the “EC50 HIV-1 (NL4-3): effective concentration needed to inhibit 50% HIV-induced cell death” value (HIV-1 (NL4-3); 5 days) is reported as 0.0007 µg/mL (≈ 0.00262 µM).
With `COC1C=CC23CCN(C)Cc4ccc(O)c(c42)OC3C1` (centres unmarked) [Chlidanthine (1), chlidanthine] the EC50 [2, 4] was 2.4e-05 M, the EC50 [2, 5] was 2.41e-05 M and the CC50 at 5 days [1] was > 25 µg/mL. The EC50 (HIV-1 (NL4-3)) was > 25 µg/mL.
For `COc1ccc2c3c1O[C@H]1C[C@H](O)C=C[C@@]31CCNC2` [Epinorgalanthamine (6), epinorgalanthamine], the EC50 ([3]; previously reported, read-out: acetylcholinesterase inhibitory properties) is listed as 9.6 µM, the CC50 at 5 days [1] is listed as 13 µg/mL (≈ 47.6 µM) and the EC50 (HIV-1 (NL4-3)) is listed as > 13 µg/mL.
For `COc1ccc2c3c1O[C@H]1C[C@@H](O)C=C[C@@]31CCN(C)C2` [Galanthamine (2), galanthamine, reference compound], the CC50 at 5 days [1] was > 25 µg/mL and the EC50 (HIV-1 (NL4-3)) was > 25 µg/mL.
In the case of `COc1ccc2c3c1O[C@H]1C[C@@H](O)C=C[C@@]31CC[N+](C)([O-])C2` (some centres unmarked) [Galanthamine N-oxide (3), galanthamine N-oxide], the EC50 [2, 4] is reported as 2.6e-05 M, the EC50 [2, 5] is reported as 2.62e-05 M and the CC50 at 5 days [1] is reported as > 25 µg/mL. The EC50 (HIV-1 (NL4-3)) was > 25 µg/mL.
With `COc1cc2c(cc1O)[C@@H]1[C@H](OC2=O)[C@@H](OC)[C@@H]2O[C@@]23CCN(C)[C@@H]13` [Galwesine (5), galwesine] the “acetylcholinesterase inhibition in words” value ([2]; at 10^−3 M) was “inactive”, the EC50 [2, 5] was > 0.001 M and the CC50 at 5 days [1] was 71.4 µg/mL (≈ 206 µM). For the same compound, the EC50 (HIV-1 (NL4-3)) was > 71.4 µg/mL.
In the case of `O[C@H]1[C@H]2c3cc4c(cc3CN3CCC(=C[C@@H]1O)[C@H]23)OCO4` [Lycorine (4), lycorine], the “acetylcholinesterase inhibitory activity in words” value [3] is given as “inactive”, the “anti-HIV-1 activity ID50” value (HIV-1) is given as 0.4 µg/mL and the “therapeutic index TI50” value (HIV-1) is given as 1.9. For the same compound, the “cytotoxicity TC50” value (human MT4 cells) was 0.75 µg/mL, the CC50 at 5 days [1] was 0.48 µg/mL (≈ 1.67 µM) and the EC50 (HIV-1 (NL4-3)) was > 0.5 µg/mL.
In the case of `Cc1ccnc2c1NC(=O)c1cccnc1N2C1CC1` [Nevirapine, reference compound], the CC50 at 5 days [1] is reported as > 2 µg/mL and the EC50 (HIV-1 (NL4-3)) is reported as 0.034 µg/mL (≈ 0.128 µM).
For `COc1ccc2c3c1O[C@H]1C[C@H](O)CC[C@@]31CCNC2` [epinorlycoramine], the “acetylcholinesterase inhibitory activity in words” value [3] is listed as “completely lost”.
In the case of `CO[C@@H]1C=C[C@@]23c4cc5c(cc4CN(C[C@@H]2O)[C@H]3C1)OCO5` [haemanthamine], the “therapeutic index TI50” value (HIV-1) is given as “even lower therapeutic indices than lycorine”.
For `COc1cc2c(cc1OC)[C@H]1[C@H]3C(=CC[C@H]1OC2=O)CCN3C` [homolycorine], the “therapeutic index TI50” value (HIV-1) is given as “even lower therapeutic indices than lycorine”.
In the case of `COc1ccc2c3c1O[C@H]1C[C@@H](O)CC[C@]31CCN(C)C2` [lycoramine], the “acetylcholinesterase inhibitory activity in words” value [3] is listed as “completely lost”.
For `CN1CC[C@@]23C=C[C@H](O)C[C@@H]2Oc2c(O)ccc(c23)C1` [sanguinine], the “increase of the AChE inhibitory activity relative to galanthamine” value [3] is listed as ~10 fold.
In the case of `c1ccc2c(c1)ncc1cc3c(cc12)OCO3` [trisphaeri-dine, trisphaeridine], the “therapeutic index TI50” value (HIV-1) is given as “even lower therapeutic indices than lycorine”.
